Experimental data taken from PMC7554048, “FBI-1 enhanced the resistance of triple-negative breast cancer cells to chemotherapeutic agents via the miR-30c/PXR axis” (Cell Death & Disease, 2020).

Assay: Olaparib sustained in cultured TNBC cells, LC-MS/MS (half-life)
Format: in vitro ADME, human
Settings: TNBC cells (PDC No. 3 and 9) overexpressing FBI-1
Method: TNBC cells transfected with plasmids were used for the pharmacokinetic experiments to examine the amount of olaparib sustained in the cells. For the cell-based experiments, cells were treated with 1 μmol/L concentration of olaparib for 12 h[33]. Then, cells were harvested at indicated time-points. For the animal experiments, TNBC cells were injected into the subcutaneous position to form subcutaneous tumor tissues. After 2–3 weeks’ growth, when the tumor volumes reached 1500–2000 mm^3, the solution of olaparib was injected into the subcutaneous tumors. Then, the tumor tissues were harvested at indicated times[34],[35]. The olaparib in cells or tumor tissues was extracted by acetonitrile (ACN), and the amount of olaparib sustained in cells or tumor tissues at each time point was determined by liquid chromatography–mass spectrometry/mass spectrometry (LC-MS/MS), following the methods established by Krens et al.[36]. The sustaining rates of olaparib were calculated as (the amount of olaparib at each time)/(the amount of olaparib at 0-time) × 100%. The sustaining curves or the half-time life (t1/2) of olaparib was obtained by the sustained rates of olaparib.

**Q.** Which “effect of ketoconazole on FBI-1-accelerated elimination or clearance of olaparib” value does the source give for `CC(=O)N1CCN(c2ccc(OCC3COC(Cn4ccnc4)(c4ccc(Cl)cc4Cl)O3)cc2)CC1` (stereo not shown) [ketoconazole] here?
**A.** Its value is “almost blocked the effect of FBI-1 on olaparib in TNBC cells”.
